Source: ChEMBL document CHEMBL1201862, “PubChem BioAssay data set” (2004)
Several values for one entry are separate records, joined by “and”; a condition that tells them apart may be missing. Equal values may be shown once. Activity calls are given as the source filed them.

Experiments:
[1] = target: 1-acylglycerol-3-phosphate O-acyltransferase ABHD5/Perilipin-5 (Homo sapiens, UniProt Q00G26+Q8WTS1); assay: Luminescence-based biochemical high throughput dose response assay for inhibitors of the interaction of the lipase co-activator protein, abhydrolase domain containing 5 (ABHD5) with perilipin-5 (MLDP; PLIN5) (2K validation set). [Related pubchem assays (depositor defined):AID493035, AID493241]
Chain of 1-acylglycerol-3-phosphate O-acyltransferase ABHD5/Perilipin-5 (Q00G26 whole entry, the tested form may be a part): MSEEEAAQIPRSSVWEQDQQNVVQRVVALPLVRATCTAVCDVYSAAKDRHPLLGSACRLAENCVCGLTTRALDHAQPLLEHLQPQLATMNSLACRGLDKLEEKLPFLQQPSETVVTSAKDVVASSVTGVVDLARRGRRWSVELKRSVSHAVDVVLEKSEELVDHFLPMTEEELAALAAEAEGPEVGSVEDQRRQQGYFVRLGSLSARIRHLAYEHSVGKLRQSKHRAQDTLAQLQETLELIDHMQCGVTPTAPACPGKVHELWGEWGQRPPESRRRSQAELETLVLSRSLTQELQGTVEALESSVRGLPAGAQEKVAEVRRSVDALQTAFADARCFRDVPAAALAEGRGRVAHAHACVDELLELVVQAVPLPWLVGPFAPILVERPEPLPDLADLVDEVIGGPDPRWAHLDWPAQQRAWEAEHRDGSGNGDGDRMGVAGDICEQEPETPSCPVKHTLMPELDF
Chain of 1-acylglycerol-3-phosphate O-acyltransferase ABHD5/Perilipin-5 (Q8WTS1 whole entry, the tested form may be a part): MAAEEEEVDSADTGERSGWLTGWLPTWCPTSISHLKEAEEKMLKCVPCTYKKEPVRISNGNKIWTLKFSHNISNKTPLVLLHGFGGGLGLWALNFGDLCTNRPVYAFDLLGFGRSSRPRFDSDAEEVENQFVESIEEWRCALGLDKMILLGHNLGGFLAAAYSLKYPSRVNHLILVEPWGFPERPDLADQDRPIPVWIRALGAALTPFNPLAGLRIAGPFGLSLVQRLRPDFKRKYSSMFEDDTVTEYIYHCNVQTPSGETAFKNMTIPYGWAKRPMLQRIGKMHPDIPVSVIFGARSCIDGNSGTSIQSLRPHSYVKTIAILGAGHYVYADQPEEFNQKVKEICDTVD

Perilipin-1/ABHD5 = Perilipin-1/ABHD5 (Homo sapiens, UniProt O60240+Q8WTS1); assay: Luminescence-based biochemical high throughput dose response assay for inhibitors of the interaction of the lipase co-activator protein, abhydrolase domain containing 5 (ABHD5) with perilipin-1 (PLIN1) (2K validation set). [Related pubchem assays (depositor defined):AID493027, AID493057]
Chain of Perilipin-1/ABHD5 (Q8WTS1 whole entry, the tested form may be a part): as above
Chain of Perilipin-1/ABHD5 (O60240 whole entry, the tested form may be a part): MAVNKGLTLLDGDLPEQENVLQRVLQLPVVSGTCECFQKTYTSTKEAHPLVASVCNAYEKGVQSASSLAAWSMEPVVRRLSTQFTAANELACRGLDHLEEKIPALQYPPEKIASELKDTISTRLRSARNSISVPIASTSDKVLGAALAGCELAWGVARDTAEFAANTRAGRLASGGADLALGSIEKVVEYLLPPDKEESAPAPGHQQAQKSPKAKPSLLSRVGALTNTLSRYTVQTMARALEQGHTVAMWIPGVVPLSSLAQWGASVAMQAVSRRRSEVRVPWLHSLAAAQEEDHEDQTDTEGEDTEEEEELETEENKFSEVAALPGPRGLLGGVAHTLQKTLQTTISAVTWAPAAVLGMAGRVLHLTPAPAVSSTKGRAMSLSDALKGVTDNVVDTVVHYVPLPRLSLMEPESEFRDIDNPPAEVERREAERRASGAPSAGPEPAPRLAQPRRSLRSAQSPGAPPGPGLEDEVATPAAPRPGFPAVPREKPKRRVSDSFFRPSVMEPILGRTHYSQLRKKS

SUMO-activating enzyme = SUMO-activating enzyme (Homo sapiens, UniProt Q9UBT2); assay: SUMOylation inhibitor hit validation, confirmation, SUMOylation inhibitor project, biochemical, AlphaScreen (AID 2018); assay type: functional
Coagulation factor XII = Coagulation factor XII (Homo sapiens, UniProt P00748); assay type: functional;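 further: activated factor XIIa alpha cleaving a fluorogenic AMC peptide substrate; inhibitor potency from loss of enzyme activity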
Chain of Coagulation factor XII (P00748 20-372 limits assumed): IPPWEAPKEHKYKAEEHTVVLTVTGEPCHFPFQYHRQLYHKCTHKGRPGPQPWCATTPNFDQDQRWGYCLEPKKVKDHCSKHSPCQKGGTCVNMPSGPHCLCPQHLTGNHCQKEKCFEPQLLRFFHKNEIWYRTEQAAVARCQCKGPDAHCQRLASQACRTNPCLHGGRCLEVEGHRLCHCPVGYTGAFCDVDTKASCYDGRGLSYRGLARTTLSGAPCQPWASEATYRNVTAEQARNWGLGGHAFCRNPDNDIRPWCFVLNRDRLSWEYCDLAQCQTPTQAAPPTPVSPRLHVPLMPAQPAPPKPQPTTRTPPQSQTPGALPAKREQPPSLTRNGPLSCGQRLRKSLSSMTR
Chain of Coagulation factor XII (P00748 373-615 limits assumed): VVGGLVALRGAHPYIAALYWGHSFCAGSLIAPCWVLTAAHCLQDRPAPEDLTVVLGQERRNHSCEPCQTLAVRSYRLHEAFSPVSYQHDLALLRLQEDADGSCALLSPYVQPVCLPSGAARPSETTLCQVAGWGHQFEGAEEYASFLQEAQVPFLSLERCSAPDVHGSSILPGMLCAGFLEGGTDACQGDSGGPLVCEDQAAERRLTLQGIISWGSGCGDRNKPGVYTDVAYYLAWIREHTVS

[2] = target: DNA dC->dU-editing enzyme APOBEC-3A (Homo sapiens, UniProt P31941); assay: Dose Response confirmation of small molecule APOBEC3A DNA Deaminase Inhibitors via a fluorescence-based single-stranded DNA deaminase assay. [Related pubchem assays (depositor defined):AID493011, AID493024]; assay type: functional
Chain of DNA dC->dU-editing enzyme APOBEC-3A (P31941 whole entry): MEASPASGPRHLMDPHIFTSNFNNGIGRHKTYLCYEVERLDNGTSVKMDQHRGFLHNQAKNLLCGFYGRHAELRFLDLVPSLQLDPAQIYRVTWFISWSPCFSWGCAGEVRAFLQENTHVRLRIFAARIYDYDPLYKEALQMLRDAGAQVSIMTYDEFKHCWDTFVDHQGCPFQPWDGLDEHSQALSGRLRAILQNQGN

[3] = target: DNA dC->dU-editing enzyme APOBEC-3G (Homo sapiens, UniProt Q9HC16); assay type: functional;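 further: Dose-response counterscreen measuring inhibition of APOBEC3G DNA deaminase activity, run while confirming APOBEC3A inhibitors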
Chain of DNA dC->dU-editing enzyme APOBEC-3G (Q9HC16 whole entry): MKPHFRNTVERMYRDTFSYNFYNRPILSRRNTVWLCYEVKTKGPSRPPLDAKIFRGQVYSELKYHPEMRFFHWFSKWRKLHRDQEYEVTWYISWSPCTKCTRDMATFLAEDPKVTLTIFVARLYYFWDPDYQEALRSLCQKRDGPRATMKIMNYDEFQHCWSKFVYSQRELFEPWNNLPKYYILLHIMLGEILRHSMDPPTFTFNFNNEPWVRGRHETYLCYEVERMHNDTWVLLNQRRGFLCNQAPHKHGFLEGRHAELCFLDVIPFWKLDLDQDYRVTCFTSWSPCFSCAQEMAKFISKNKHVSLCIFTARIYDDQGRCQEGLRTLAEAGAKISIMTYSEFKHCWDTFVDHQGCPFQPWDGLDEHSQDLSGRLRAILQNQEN

[4] = THP-1 cell cytotoxicity, dose response, cytotoxicity control for non-replicating M. tuberculosis project (AID 489025); assay type: functional
[5] = HepG2 cell cytotoxicity, dose response, cytotoxicity control for non-replicating M. tuberculosis project (AID 489018); assay type: functional; conditions: Mycobacterium tuberculosis
[6] = Vero E6 cell cytotoxicity, dose response, cytotoxicity control for non-replicating M. tuberculosis project, secondary assay (AID 492998); assay type: functional, VeroE6; conditions: Vero C1008
cells = assay type: functional
Tumor necrosis factor = Tumor necrosis factor (Homo sapiens, UniProt P01375); assay: TNFa-triggered NF-kB activation inhibitors, SAR follow-up, cell-based, revised (AID 2337); assay type: functional
HEK293 = assay: cells; conditions: Homo sapiens
[7] = target: T1, Mannose-6-phosphate isomerase (Homo sapiens, UniProt P34949); assay: PMI enzyme inhibitors, confirmation, biochemical, fluorescence intensity (AID 1535)
T1 sequence (P34949 whole entry): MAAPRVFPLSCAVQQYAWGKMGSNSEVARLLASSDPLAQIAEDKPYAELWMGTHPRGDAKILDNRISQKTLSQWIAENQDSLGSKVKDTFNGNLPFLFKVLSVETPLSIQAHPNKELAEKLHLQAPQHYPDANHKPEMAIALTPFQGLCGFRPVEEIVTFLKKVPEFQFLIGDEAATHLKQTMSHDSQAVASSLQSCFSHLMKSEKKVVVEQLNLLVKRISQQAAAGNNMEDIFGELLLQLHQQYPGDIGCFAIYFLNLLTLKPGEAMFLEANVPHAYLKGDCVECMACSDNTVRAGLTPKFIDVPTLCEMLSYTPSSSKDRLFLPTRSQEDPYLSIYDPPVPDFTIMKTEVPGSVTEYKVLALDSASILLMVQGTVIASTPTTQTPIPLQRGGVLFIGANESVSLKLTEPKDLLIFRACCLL

Phosphomannomutase 2 = target: T2, Phosphomannomutase 2 (Homo sapiens, UniProt O15305); assay: Counter screen SAR assay for PMM2 inhibitors via a fluorescence intensity assay. [Related pubchem assays (depositor defined):AID1545, AID1574]
T2 sequence (O15305 whole entry): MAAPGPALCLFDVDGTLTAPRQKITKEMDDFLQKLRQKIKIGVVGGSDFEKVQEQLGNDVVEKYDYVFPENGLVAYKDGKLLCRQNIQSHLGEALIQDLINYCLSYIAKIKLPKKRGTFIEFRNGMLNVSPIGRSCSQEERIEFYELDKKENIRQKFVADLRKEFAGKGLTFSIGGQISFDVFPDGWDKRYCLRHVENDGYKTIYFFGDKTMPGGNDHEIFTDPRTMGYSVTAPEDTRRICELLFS

[8] = target: Phosphoethanolamine/phosphocholine phosphatase (Homo sapiens, UniProt Q8TCT1); assay: SAR assay for compounds that inhibit PHOSPHO1. [Related pubchem assays (depositor defined):AID1545, AID1565, AID1574]
Chain of Phosphoethanolamine/phosphocholine phosphatase (Q8TCT1 whole entry): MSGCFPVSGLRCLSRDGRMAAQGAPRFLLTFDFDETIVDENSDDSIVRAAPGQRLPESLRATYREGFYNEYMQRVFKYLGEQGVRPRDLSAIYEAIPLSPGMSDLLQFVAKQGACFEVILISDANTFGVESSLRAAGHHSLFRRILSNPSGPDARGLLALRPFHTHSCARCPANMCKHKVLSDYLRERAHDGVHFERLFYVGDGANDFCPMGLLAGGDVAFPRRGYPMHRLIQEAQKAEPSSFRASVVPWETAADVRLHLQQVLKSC

[9] = target: T3, Alkaline phosphatase, tissue-nonspecific isozyme (Homo sapiens, UniProt P05186); assay: human TNAP enzyme inhibitors, SAR follow-up, biochemical, luminescent, dose response (AID 1056)
T3 sequence (P05186 whole entry): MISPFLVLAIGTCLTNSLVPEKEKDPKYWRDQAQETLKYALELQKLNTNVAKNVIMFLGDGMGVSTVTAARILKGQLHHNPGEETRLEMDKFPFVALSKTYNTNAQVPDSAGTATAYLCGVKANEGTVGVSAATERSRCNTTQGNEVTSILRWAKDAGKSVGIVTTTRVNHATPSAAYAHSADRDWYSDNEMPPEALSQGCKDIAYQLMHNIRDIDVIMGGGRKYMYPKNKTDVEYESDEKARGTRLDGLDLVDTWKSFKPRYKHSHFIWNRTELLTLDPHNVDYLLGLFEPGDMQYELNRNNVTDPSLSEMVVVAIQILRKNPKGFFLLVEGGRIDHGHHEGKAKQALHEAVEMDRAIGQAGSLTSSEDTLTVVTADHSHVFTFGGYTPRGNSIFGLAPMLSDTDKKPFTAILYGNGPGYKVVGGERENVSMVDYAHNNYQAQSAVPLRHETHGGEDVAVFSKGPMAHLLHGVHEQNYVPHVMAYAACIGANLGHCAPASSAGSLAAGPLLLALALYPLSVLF

[10] = target: T4, Tyrosine-protein phosphatase non-receptor type 7 (Homo sapiens, UniProt P35236); assay: SAR analysis of chemical inhibitors of HePTP using a Fluorescent assay - Set 2. [Related pubchem assays (depositor defined):AID1059, AID1077, AID1661, AID2085, AID521]; assay type: functional
T4 sequence (P35236 whole entry): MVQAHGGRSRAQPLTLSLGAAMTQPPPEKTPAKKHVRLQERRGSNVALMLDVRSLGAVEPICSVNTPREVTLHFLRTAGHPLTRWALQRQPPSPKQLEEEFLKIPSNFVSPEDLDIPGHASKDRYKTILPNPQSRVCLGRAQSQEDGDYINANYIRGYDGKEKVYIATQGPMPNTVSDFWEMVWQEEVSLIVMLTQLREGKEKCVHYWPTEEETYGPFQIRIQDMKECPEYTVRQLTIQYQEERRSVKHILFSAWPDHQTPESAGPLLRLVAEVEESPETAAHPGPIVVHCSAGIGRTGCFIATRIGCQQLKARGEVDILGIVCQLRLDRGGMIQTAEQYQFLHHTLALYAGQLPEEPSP

[11] = target: Dual specificity protein phosphatase 3 (Homo sapiens, UniProt P51452); assay: SAR VHR1 Fluorescent Assay for In Vitro dose response studies Set 2. [Related pubchem assays (depositor defined):AID1654, AID1661, AID1878]; assay type: functional
Chain of Dual specificity protein phosphatase 3 (P51452 whole entry, the tested form may be a part): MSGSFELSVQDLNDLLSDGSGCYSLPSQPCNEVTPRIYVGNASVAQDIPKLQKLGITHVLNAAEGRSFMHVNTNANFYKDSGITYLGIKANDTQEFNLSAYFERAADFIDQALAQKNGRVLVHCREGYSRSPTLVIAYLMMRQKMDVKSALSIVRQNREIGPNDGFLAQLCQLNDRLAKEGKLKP

[12] = target: T5, Carboxy-terminal domain RNA polymerase II polypeptide A small phosphatase 1 (Homo sapiens, UniProt Q9GZU7); assay: inhibitors of CTDSP1, concentration-response testing, biochemical assay, absorbance-based, actives from ultra-high-throughput screening (AID 540297); assay type: functional
T5 sequence (Q9GZU7 whole entry): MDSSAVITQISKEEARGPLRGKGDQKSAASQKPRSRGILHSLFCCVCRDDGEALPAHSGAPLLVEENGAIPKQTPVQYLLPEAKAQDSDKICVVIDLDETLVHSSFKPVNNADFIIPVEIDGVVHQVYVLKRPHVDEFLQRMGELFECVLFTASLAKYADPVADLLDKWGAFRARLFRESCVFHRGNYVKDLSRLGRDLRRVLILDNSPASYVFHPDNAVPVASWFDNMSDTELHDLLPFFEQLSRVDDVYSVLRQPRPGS

[13] = target: T6, Short transient receptor potential channel 4 (Mus musculus, UniProt Q9QUQ5); assay: mouse TRPC4 channel inhibitors, dose response, cell-based, HEK293 TRPC4/mu-opioid, Fluo-4 calcium (AID 434942); assay type: functional;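 further: potency of inhibitors blocking the TRPC4 calcium response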
T6 sequence (Q9QUQ5 whole entry): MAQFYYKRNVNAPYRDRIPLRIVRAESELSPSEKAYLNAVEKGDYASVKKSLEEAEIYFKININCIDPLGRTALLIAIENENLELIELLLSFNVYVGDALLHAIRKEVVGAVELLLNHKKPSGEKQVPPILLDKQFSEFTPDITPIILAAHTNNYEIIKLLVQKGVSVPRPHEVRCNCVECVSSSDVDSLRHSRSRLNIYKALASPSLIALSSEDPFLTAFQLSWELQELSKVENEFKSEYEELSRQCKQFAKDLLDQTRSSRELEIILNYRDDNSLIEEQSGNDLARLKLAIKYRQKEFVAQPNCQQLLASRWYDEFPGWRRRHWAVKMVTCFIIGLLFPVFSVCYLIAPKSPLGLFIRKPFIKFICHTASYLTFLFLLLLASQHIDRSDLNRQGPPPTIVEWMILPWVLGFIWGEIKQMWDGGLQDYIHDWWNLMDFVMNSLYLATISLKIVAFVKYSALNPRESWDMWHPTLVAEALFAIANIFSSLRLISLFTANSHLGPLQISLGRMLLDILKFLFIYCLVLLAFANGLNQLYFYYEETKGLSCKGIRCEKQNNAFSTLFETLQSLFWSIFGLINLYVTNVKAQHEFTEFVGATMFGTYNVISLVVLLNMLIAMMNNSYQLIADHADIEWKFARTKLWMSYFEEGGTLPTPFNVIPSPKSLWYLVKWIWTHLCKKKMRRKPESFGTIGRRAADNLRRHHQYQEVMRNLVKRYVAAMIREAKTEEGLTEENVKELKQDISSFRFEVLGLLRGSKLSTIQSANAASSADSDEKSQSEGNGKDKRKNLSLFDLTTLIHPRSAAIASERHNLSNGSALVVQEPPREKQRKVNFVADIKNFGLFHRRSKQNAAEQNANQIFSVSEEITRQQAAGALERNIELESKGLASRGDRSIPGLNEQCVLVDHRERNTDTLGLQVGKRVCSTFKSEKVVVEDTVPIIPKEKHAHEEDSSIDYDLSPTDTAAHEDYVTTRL

Ion channel NompC = Ion channel NompC (Danio rerio, UniProt Q7T1G6); assay: Dose response cell-based high-throughput screening assay for agonists of the transient receptor potential channel N1 (TRPN1). [Related pubchem assays (depositor defined):AID1424, AID1448]; assay type: functional
Chain of Ion channel NompC (Q7T1G6 whole entry): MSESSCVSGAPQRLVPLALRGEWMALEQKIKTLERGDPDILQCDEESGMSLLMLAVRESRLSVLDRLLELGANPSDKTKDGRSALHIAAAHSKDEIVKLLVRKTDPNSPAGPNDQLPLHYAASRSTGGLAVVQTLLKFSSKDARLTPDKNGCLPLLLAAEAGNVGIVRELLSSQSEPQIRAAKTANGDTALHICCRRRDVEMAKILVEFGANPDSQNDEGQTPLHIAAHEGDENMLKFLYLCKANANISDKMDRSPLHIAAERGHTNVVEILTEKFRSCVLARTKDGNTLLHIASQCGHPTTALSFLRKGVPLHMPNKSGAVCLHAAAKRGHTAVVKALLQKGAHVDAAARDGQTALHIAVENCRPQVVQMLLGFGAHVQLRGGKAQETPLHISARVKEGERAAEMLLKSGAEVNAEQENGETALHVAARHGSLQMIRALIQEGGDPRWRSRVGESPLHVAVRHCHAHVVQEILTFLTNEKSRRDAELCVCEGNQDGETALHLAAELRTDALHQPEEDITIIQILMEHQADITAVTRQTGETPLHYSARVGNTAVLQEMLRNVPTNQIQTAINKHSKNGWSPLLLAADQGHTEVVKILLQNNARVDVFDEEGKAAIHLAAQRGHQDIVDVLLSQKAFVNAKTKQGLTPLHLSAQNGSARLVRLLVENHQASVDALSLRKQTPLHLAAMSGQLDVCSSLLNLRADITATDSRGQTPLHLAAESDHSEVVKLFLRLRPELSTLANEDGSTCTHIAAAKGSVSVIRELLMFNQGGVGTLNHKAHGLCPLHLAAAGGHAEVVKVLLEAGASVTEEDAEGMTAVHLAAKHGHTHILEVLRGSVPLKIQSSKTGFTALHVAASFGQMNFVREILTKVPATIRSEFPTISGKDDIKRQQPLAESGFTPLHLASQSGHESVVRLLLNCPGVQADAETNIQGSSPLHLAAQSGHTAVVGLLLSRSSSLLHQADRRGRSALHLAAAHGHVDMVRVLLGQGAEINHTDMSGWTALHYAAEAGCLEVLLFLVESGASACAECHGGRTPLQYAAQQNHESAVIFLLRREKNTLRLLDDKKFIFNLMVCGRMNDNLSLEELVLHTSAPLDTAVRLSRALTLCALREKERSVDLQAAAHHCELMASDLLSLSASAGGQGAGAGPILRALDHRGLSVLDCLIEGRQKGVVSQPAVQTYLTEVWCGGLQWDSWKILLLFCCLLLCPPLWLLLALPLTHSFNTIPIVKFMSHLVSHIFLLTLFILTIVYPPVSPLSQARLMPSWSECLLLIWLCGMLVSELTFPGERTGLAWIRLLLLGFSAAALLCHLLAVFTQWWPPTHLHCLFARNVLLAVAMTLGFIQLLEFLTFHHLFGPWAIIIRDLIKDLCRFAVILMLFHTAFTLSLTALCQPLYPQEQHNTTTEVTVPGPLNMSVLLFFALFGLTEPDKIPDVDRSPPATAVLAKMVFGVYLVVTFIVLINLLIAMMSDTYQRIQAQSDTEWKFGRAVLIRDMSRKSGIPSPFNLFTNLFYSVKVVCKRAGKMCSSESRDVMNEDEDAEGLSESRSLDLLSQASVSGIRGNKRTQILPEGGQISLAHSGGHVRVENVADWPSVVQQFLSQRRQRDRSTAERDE

Mucolipin-3 = target: T7, Mucolipin-3 (Homo sapiens, UniProt Q8TDD5); assay: Fluorescence counterscreen assay for […] agonists: dose response cell-based high-throughput screening assay to identify agonists of the transient receptor potential channel ML3 (TRPML3). [Related pubchem assays: 1424, 1448 ]; assay type: functional
T7 sequence (Q8TDD5 whole entry): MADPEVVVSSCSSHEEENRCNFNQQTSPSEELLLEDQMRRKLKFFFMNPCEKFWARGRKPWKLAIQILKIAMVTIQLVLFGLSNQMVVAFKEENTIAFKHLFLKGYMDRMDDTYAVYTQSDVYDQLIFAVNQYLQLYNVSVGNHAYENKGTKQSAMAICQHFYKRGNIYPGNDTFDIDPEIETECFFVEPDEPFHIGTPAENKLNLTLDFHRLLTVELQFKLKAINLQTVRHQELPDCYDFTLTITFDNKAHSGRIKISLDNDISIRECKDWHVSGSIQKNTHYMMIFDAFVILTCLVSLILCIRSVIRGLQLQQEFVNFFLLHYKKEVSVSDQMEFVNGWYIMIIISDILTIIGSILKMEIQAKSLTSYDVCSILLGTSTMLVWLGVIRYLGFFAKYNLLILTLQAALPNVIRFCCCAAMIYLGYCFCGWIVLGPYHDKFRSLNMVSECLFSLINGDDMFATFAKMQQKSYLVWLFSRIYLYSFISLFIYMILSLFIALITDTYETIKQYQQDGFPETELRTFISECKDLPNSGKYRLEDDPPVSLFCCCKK

[14] = target: T8, Probable nicotinate-nucleotide adenylyltransferase (Staphylococcus aureus (strain N315), UniProt P65502); assay type: functional, Staphylococcus aureus subsp. aureus N315;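 on IC50 Mean: confirmatory dose-response retesting of NadD inhibitor hits first found in an ultra-high-throughput screen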
T8 sequence (P65502 whole entry): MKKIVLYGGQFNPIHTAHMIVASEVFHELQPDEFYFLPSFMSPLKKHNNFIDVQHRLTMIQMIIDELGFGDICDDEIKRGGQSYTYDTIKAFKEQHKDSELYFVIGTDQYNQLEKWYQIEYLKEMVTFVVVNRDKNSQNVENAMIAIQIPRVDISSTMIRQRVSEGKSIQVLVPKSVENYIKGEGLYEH

[15] = target: T8, Probable nicotinate-nucleotide adenylyltransferase; assay type: functional, Staphylococcus aureus subsp. aureus N315; conditions: read-out: IC50_Mean

## N#C/C(=C/c1ccccc1)C(=O)NCc1ccccc1
[1]
  IC50: 17.2 µM (inactive)
Perilipin-1/ABHD5
  IC50: 13.1 µM (inactive)

## CCOc1ccc(-n2c(SCC(=O)Nc3ccc(CC)cc3)nc3nnc(C)c-3c2N)cc1
SUMO-activating enzyme
  IC50: 36.9 µM (active)

## CC(C)=CCC/C(C)=C/CC/C(C)=N/O
Coagulation factor XII
  IC50: > 50 µM (inactive)

## CCN1C(NCc2cc(OC)c(OC)c(OC)c2)=N[C@@H](c2ccccc2)C(C(=O)OC)=C1C
[2]
  IC50: 4.15 µM (active)
[3]
  IC50: 3.54 µM (active)

## O=C(NC(=S)N1CCc2ccccc21)c1ccccc1
[4]
  CC50: > 40 µM (active)
[5]
  CC50: > 20 µM (active)
[6]
  CC50: > 20 µM (active)
cells
  IC50: 9.86 µM (active)

## CC(=O)c1ccc(N2CCN(S(=O)(=O)c3ccc4c(c3)CCN4C(C)=O)CC2)cc1
Tumor necrosis factor
  IC50: 13.2 µM (active)
HEK293
  IC50: > 20 µM (inactive)

## Cc1ccc(C)c(-n2sc3cc(F)ccc3c2=O)c1
[7]
  IC50: 0.985 µM (active)
Phosphomannomutase 2
  IC50: 9.95 µM (active) and 4.57 µM (active)
[8]
  IC50: 4.1 µM (inactive)
[9]
  IC50: > 100 µM (inactive)

## CCCOc1ccc(C(=S)NCc2ccc(F)cc2)cc1
[10]
  IC50: 19.5 µM (active)
[11]
  IC50: 15.1 µM (active)

## Cc1ccc(C2=NOC(=O)/C2=C\C=C\c2ccccc2)cc1
[1]
  IC50: 1.12 µM (active)
Perilipin-1/ABHD5
  IC50: 1.23 µM (active)

## C=CC#CC1(O)CC(C)[N+](C)(C)CC1C (stereo unspecified)
[2]
  IC50: 1.97 µM (active)
[3]
  IC50: 5.58 µM (active)
[12]
  IC50: 7.57 µM (active)

## COc1ccc(C(c2nnnn2C2CCCC2)N2CCN(c3ccccc3)CC2)cc1 (stereo unspecified)
[13]
  EC50: 5.31 µM (active)

## COc1ccc(OC)c(C(=S)NCc2ccc(F)cc2)c1
[10]
  IC50: 8.78 µM (active)
[11]
  IC50: 13.5 µM (active)

## COc1ccc(C(=O)NNC(=S)NC(=O)c2cc(-c3ccccc3)nc3ccccc23)cc1
Ion channel NompC
  EC50: > 29.9 µM (inactive)
Mucolipin-3
  EC50: > 29.9 µM (not active)
[14]
  IC50: 7.14 µM (active)
[15]
  IC50: 26.4 µM (active)

## CNS(=O)(=O)c1cc(C(=O)O)ccc1OC
Coagulation factor XII
  IC50: > 50 µM (inactive)
